Data reported in patent US20230279233A1, “ATROROSINS AS FOOD COLORS” (Chromologics ApS, priority 2020, published 2023).
Several values for one entry are separate records, joined by “and”; a condition that tells them apart may be missing. Equal entries are not always repeated. Entries after “also recorded” stand apart in the source; their conditions may differ. Where two headings read alike, the source gives them in different places.

Experiments:
DPPH antioxidant assay = conditions: 0 μM to 45 μM, 30 minutes, absorbance 517 nm, compared to Trolox (FIG. 3)
Procedure: To assess antioxidant activity of Atrorosin-E, the common DPPH (2,2 Diphenyl-1-picrylhydrazyl) assay was used. A working solution of DPPH was made with a concentration of 220 μg/ml in ethanol. 1 g of the resulting powder from Example 2 was used to make a dilution row of atrorosin-E from 0 μM to 45 μM. […] of each sample was reacted to 1000 μL of DPPH for 30 minutes in the dark before absorbance was measured.
Antioxidant activity was determined by calculating the inhibition of emission of DPPH by measuring absorbance of DPPH at 517 nm before and after incubation with reactants. As Atrorosins have background emission at 517, the before sample was measured seconds after addition of atrorosins rather than before. Antioxidant activity of Atrorosin-E was compared to the standard Trolox (FIG. 3).

[1] = pH stability in McIlvaine buffer pH 2.2-7.2, absorption maxima by spectrophotometer; assay type: physicochemical
TA 98 = assay: mini-Ames (AMES MPF) genotoxicity; assay type: cell-based; conditions: for genotoxic effects (in words): mini-Ames study
Procedure: Resulting powder from example 2 was sent to Cyprotox to asses for genotoxicity in a mini-Ames experiment. 43.2 mg of atrorosin was sent to Cyprotox. Mini-Ames test were conducted under the guidelines of OECD.
In comparison to the atrorosin tested above, similar 46.4 mg of carminic acid was also sent to Cyprotox to assess for genotoxicity.

[2] = Pharmacokinetic profile in rats, IV and PO; assay type: in vivo; conditions: for Cmax: read-out: C0/Cmax
Procedure: Resulting powder from example 2 was sent to Evotec to asses for the pharmacokinetic profile of atrorosin. 6 rats were used, 3 rats for IV injection of atrorosin and 3 rats for PO. The rats were injected or given through mouth gauge 2 mg/kg, and blood samples were taken at regular intervals.
In comparison to example 10, similar carminic acid was also sent to Evotec to assess the pharmacokinetic profile.

[3] = Temperature stability at 60° C. and 80° C. in McIlvaine buffer pH 5, absorption maxima
Procedure: Buffer and atrorosin was mixed for 5 minutes before the solutions were subjected heating in an incubator at 60° C. and 80° C. to colorimetric analysis using spectrophotometer. The absorption maxima at 425 nm and 490 nm were determined in a microtiter plate with a 0.45 cm cell length with buffer as blank. In comparison to the data in Table 3, the absorption spectrum of betanin is determined as above. […] In comparison to Table 5, the absorption spectrum of betanin is determined as above.

[4] = rat, IV 2 mg/kg, individual rats 1-3, 2 mg/kg
[5] = rat, PO 2 mg/kg, individual rats 4-6, 2 mg/kg

## CCCCCCCC(=O)C1=C2C=C3C=C(/C=C\C(=O)O)N([C@@H](CCC(=O)O)C(=O)O)C=C3C(=O)C2(C)OC1=O (stereo partly shown) [Atrorosin-E]
DPPH antioxidant assay
  Antioxidant activity (inhibition of DPPH, in words): far more potent antioxidant than the control antioxidant Trolox
[1]; compared with carminic acid, Tables 1 and 2
  pH stability (in words): superior pH stability at low pH
[1]; pH 2.2
  Absorption at 425 nm: 0.63
  Absorption at 490 nm: 3.30
[1]; pH 3.5
  Absorption at 425 nm: 0.73
  Absorption at 490 nm: 3.92
[1]; pH 5
  Absorption at 425 nm: 0.75
  Absorption at 490 nm: 3.94
[1]; pH 7.2
  Absorption at 425 nm: 0.73
  Absorption at 490 nm: 3.91
TA 98; TA 98 +S9, 62.5 μg/ml
  Fold increase (over baseline): 0.55
  mean # pos. Wells: 1.33
TA 98; TA 98 +S9, 125 μg/ml
  Fold increase (over baseline): 0.28
  mean # pos. Wells: 0.67
TA 98; TA 98 +S9, 250 μg/ml
  Fold increase (over baseline): 0.42
  mean # pos. Wells: 1.00
TA 98; TA 98 +S9, 500 μg/ml
  Fold increase (over baseline): 0.28
  mean # pos. Wells: 0.67
TA 98; TA 98 +S9, 1000 μg/ml
  Fold increase (over baseline): 0.69
  mean # pos. Wells: 1.67
TA 98; TA 98 +S9, 2000 μg/ml
  Fold increase (over baseline): 0.00
  mean # pos. Wells: 0.00
TA 98; TA 98 −S9, 62.5 μg/ml
  Fold increase (over baseline): 0.00
  mean # pos. Wells: 0.00
TA 98; TA 98 −S9, 125 μg/ml
  Fold increase (over baseline): 0.76
  mean # pos. Wells: 1.00
TA 98; TA 98 −S9, 250 μg/ml
  Fold increase (over baseline): 1.52
  mean # pos. Wells: 2.00
TA 98; TA 98 −S9, 500 μg/ml
  Fold increase (over baseline): 0.76
  mean # pos. Wells: 1.00
TA 98; TA 98 −S9, 1000 μg/ml
  Fold increase (over baseline): 0.51
  mean # pos. Wells: 0.67
TA 98; TA 98 −S9, 2000 μg/ml
  Fold increase (over baseline): 0.51
  mean # pos. Wells: 0.67
TA 98
  genotoxic effects (in words): do not exert any genotoxic effects
TA 98; listed as atrorosin
  genotoxic effects (in words): not genotoxic; also recorded: neither genotoxic
[2]; rat, IV 2 mg/kg, Mean
  C0/Cmax: 10098 ng/mL
  CL/CL_F (plasma clearance): 16 ± 2 mL/min/kg
  Clast: 3.15 ng/mL
  MRT: 0.5 h
  Vdss: 0.5 L/kg
  t½: 1.3 ± 0.6 h
  Cmax: 18.6 µM
[2]; rat, IV 2 mg/kg, individual rats 1-3
  Vdss: 0.5 L/kg
[2]; [4]
  AUC0-t: 2330 ng · hr/mL and 1818 ng · hr/mL and 2055 ng · hr/mL and 4297 nM · hr and 3352 nM · hr and 3790 nM · hr
  AUCinf: 2336 ng · hr/mL and 1822 ng · hr/mL and 2063 ng · hr/mL and 4308 nM · hr and 3360 nM · hr and 3804 nM · hr
  C0/Cmax: 9019 ng/mL and 10685 ng/mL and 10589 ng/mL
  CL/CL_F: 14 mL/min/kg and 18 mL/min/kg and 16 mL/min/kg
  Clast: 3.26 ng/mL and 3.45 ng/mL and 2.73 ng/mL
  MRT: 0.5 h (2×) and 0.4 h
  Tlast: 8 h (2×) and 6 h
  t½: 1.3 h and 0.8 h and 1.9 h
  Cmax: 16.6 µM and 19.7 µM and 19.5 µM
[2]; rat, PO 2 mg/kg, Mean
  C0/Cmax: 4.46 ng/mL
  Clast: 3.28 ng/mL
  Cmax: 0.0082 µM
[2]; rat, PO 2 mg/kg, Mean, 2 mg/kg
  Bioavailability (%) Using AUC0-t: 0.3%
[2]; rat, PO 2 mg/kg, Mean, listed as atrorosin, 2 mg/kg
  Bioavailability (%) Using AUC0-t: 0.3%
[2]; rat, PO 2 mg/kg, Median
  Tmax: 1 h
[2]; rat, PO 2 mg/kg, individual rats 4-6
  Tlast: 2 h
[2]; [5]
  AUC0-t: 6.35 ng · hr/mL and 7.6 ng · hr/mL and 5.76 ng · hr/mL and 11.7 nM · hr and 13.9 nM · hr and 10.6 nM · hr
  Bioavailability (%) Using AUC0-t: 0.3% (2×) and 0.4%
  C0/Cmax: 4.35 ng/mL and 5.35 ng/mL and 3.68 ng/mL
  Clast: 2.6 ng/mL and 2.88 ng/mL
  Tmax: 2 h and 1 h and 0.25 h
  Cmax: 0.00803 µM and 0.0099 µM and 0.00679 µM
[2]; rat, in vivo, po, 2 mg/kg
  Clast: 4.35 ng/mL
[2]; rats, 2 mg/kg IV or PO, 2 mg/kg
  safety when ingested / adverse effects on rats (in words): safe when ingested; also recorded: nor does it have any adverse effects on rats
[3]; 60° C., pH 5, 1 H
  Absorption at 425 nm: 2.01
  Absorption at 490 nm: 3.53
[3]; 60° C., pH 5, 2 H
  Absorption at 425 nm: 1.98
  Absorption at 490 nm: 3.42
[3]; 60° C., pH 5, 3 H
  Absorption at 425 nm: 1.78
  Absorption at 490 nm: 3.11
[3]; 60° C., pH 5, 24 H
  Absorption at 425 nm: 0.78
  Absorption at 490 nm: 1.31
[3]; 60° C., pH 5, T0: Start
  Absorption at 425 nm: 2.03
  Absorption at 490 nm: 3.55
[3]; 80° C., pH 5, 1 H
  Absorption at 425 nm: 1.66
  Absorption at 490 nm: 2.86
[3]; 80° C., pH 5, 2 H
  Absorption at 425 nm: 1.23
  Absorption at 490 nm: 2.13
[3]; 80° C., pH 5, 3 H
  Absorption at 425 nm: 0.99
  Absorption at 490 nm: 1.71
[3]; 80° C., pH 5, 15 min
  Absorption at 425 nm: 2.00
  Absorption at 490 nm: 3.38
[3]; 80° C., pH 5, T0: Start
  Absorption at 425 nm: 2.04
  Absorption at 490 nm: 3.48
